Measurements: patent publication US20120283216A1, “FUNGICIDAL 2-(BICYCLIC ARYLOXY)CARBOXAMIDES” (priority 2009, published 2012)

Legend:
Type in all cases: in vivo
[1] = system: Blumeria graminis f. sp. tritici; assay: Test A: wheat powdery mildew, preventive spray on wheat seedlings, visual disease rating; conditions: preventive spray at 40 ppm, rated 8 days after inoculation
How it was run: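 Wheat seedlings sprayed to run-off with 40 ppm compound (equivalent to 800 g/ha) in acetone/water with 250 ppm surfactant, then dusted with B. graminis spores next day. Held at 20° C. for 8 days before visual rating, 0–100 scale as % disease control relative to controls.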

Septoria tritici = assay: Test B: wheat leaf blotch, preventive spray on wheat seedlings, visual disease rating; conditions: preventive spray at 40 ppm, rated after 48 h + 19 days
How it was run: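 Wheat seedlings were sprayed to run-off with 40 ppm compound (≈800 g/ha) in acetone/water with 250 ppm surfactant, then inoculated with Septoria tritici spores the next day. After 48 h saturated humidity at 20° C and 19 days in a growth chamber at 20° C, disease control was rated visually (0–100% vs controls).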

Botrytis cinerea = assay: Test C: tomato botrytis, preventive spray on tomato seedlings, visual disease rating; conditions: preventive spray at 40 ppm, rated after 48 h + 3 days
How it was run: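 Compounds applied at 40 ppm (≈800 g/ha) in acetone/water with surfactant, sprayed to run-off on tomato seedlings. Inoculated next day with B. cinerea spores; 48 h saturated humidity at 20 °C, then 3 days at 27 °C. Visual rating as % disease control versus untreated controls.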

Structure (SMILES)	Test A disease control rating (100 = 100% disease control, 0 = no disease control relative to the controls) [1] [%]	Test B disease control rating (100 = 100% disease control, 0 = no disease control relative to the controls) (Septoria tritici) [%]	Test C disease control rating (100 = 100% disease control, 0 = no disease control relative to the controls) (Botrytis cinerea) [%]	pest or weed control at 40 ppm ([1]; Blumeria graminis, 192 h, read-out: Test A disease control rating (100 = 100% disease control, 0 = no disease control relative to the controls)) [%]	pest or weed control at 40 ppm (Septoria tritici; Zymoseptoria tritici, 504 h, read-out: Test B disease control rating (100 = 100% disease control, 0 = no disease control relative to the controls)) [%]	pest or weed control at 40 ppm (Botrytis cinerea; Botrytis cinerea, 120 h, read-out: Test C disease control rating (100 = 100% disease control, 0 = no disease control relative to the controls)) [%]
C#CCOc1ccc2ccc(OC(CC)C(=O)NC(C)(C)C)cc2c1 (stereo not drawn) [Compound 134]	43	100	100	–	–	–
C#CCOc1ccc2ccc(OC(CC)C(=O)NC(C)(C)C#C)cc2c1 (stereo not drawn) [Compound 135]	0	98	99	–	–	–
CCCOc1ccc2ccc(OC(OC)C(=O)NC(C)(C)CC)cc2c1 (stereo not drawn) [Compound 136]	79	98	97	–	–	–
C#CCOc1ccc2ccc(OC(OC)C(=O)NC(C)(C)CC)cc2c1 (stereo not drawn) [Compound 137]	87	94	99	–	–	–
CCc1ccc2ccc(OC(CC)C(=O)NC(C)(C)COC)cc2c1 (stereo not drawn) [Compound 138, 2-[(7-ethyl-2-naphthalenyl)oxy]-N-(2-methoxy-1,1-dimethylethyl)-butanamide]	–	–	–	99	83	100
CCOCC(C)(C)NC(=O)C(CC)Oc1ccc2ccc(CC)cc2c1 (stereo not drawn) [Compound 139]	97	47	96	–	–	–
C#CC(C)(C)NC(=O)C(CC)Oc1ccc2ccc(CC)cc2c1 (stereo not drawn) [Compound 141]	97	80	100	–	–	–
CC#CC(C)(C)NC(=O)C(CC)Oc1ccc2ccc(CC)cc2c1 (stereo not drawn) [Compound 142]	96	77	93	–	–	–
CCCc1ccc2ccc(OC(CC)C(=O)NC(C)(C)COC)cc2c1 (stereo not drawn) [Compound 143]	98	100	99	–	–	–
C#CC(C)(C)NC(=O)C(CC)Oc1ccc2ccc(CCC)cc2c1 (stereo not drawn) [Compound 144]	99	93	98	–	–	–
CCC(Oc1cnc2ccc(OC)cc2c1)C(=O)NC(C)(C)COC (stereo not drawn) [Compound 146]	0	100	99	–	–	–
C#CC(C)(C)NC(=O)C(CC)Oc1cnc2ccc(OC)cc2c1 (stereo not drawn) [Compound 147]	0	99	99	–	–	–
C#Cc1ccc2ncc(OC(CC)C(=O)NC(C)(C)C)cc2c1 (stereo not drawn) [Compound 149]	100	100	98	–	–	–
C#Cc1ccc2ncc(OC(CC)C(=O)NC(C)(C)CC)cc2c1 (stereo not drawn) [Compound 150]	96	100	97	–	–	–
C#Cc1ccc2ncc(OC(CC)C(=O)NC(C)(C)C#C)cc2c1 (stereo not drawn) [Compound 151]	99	100	96	–	–	–
C#Cc1ccc2ncc(OC(CC)C(=O)NC(C)(C)C#N)cc2c1 (stereo not drawn) [Compound 152]	88	100	94	–	–	–
